Values joined by “and” are separate entries in the source; they are usually repeats but may differ in a detail not shown here. Equal entries are not always repeated.
How the values were obtained:
[1] = In vitro dissolution of cyclodextrin based meloxicam compositions under non-sink conditions (standard method); format: physicochemical
Procedure: The following standard method was used for the determination of the solution rate of the drug compositions: In vitro dissolution properties of the cyclodextrin based meloxicam compositions were studied under non-sink conditions in two different buffer systems, pH 1.3 and 7.6, respectively and in deionised water (pH=6.6) at 37° C.
(§1) The stirring rate was 160 r.p.m. […] Sampling time intervals were 5, 10, 15, 30, 45 and 60 minutes.

[2] = In vitro rate of dissolution of meloxicam composition at pH 1.2 (table 9); format: physicochemical; details: 37° C., 60 min
Procedure: The following standard method was used for the determination of the solution rate of the drug compositions: In vitro dissolution properties of the cyclodextrin based […], respectively and in deionised water (pH=6.6) at 37° C.
as §1

Cc1cnc(NC(=O)C2=C(O)c3ccccc3S(=O)(=O)N2C)s1 [free meloxicam, meloxicam]
Dissolved meloxicam in solution ([1]; deionised water (pH = 6.6), 37° C., 5 min): 23 µg/mL
Dissolved meloxicam in solution ([1]; deionised water (pH = 6.6), 37° C., 10 min): 148 µg/mL
Dissolved meloxicam in solution ([1]; deionised water (pH = 6.6), 37° C., 15 min): 232 µg/mL
Dissolved meloxicam in solution ([1]; deionised water (pH = 6.6), 37° C., 30 min): 390 µg/mL
Dissolved meloxicam in solution ([1]; deionised water (pH = 6.6), 37° C., 45 min): 415 µg/mL
Dissolved meloxicam in solution ([1]; deionised water (pH = 6.6), 37° C., 60 min): 475 µg/mL
Dissolved meloxicam in solution ([1]; pH 1.3, 37° C., 5 min (tables 4, 11, 13)): 0.4 µg/mL and 0.30 µg/mL
Dissolved meloxicam in solution ([1]; pH 1.3, 37° C., 5 min, free meloxicam 130 mg, composition 1300 mg (table 7)): 0.45 µg/mL
Dissolved meloxicam in solution ([1]; pH 1.3, 37° C., 5 min, free meloxicam 130 mg, composition 1500 mg (tables 5, 6)): 0.45 µg/mL
Dissolved meloxicam in solution ([1]; pH 1.3, 37° C., 10 min (tables 4, 11, 13)): 0.6 µg/mL and 0.38 µg/mL
Dissolved meloxicam in solution ([1]; pH 1.3, 37° C., 10 min, free meloxicam 130 mg, composition 1300 mg (table 7)): 0.62 µg/mL
Dissolved meloxicam in solution ([1]; pH 1.3, 37° C., 10 min, free meloxicam 130 mg, composition 1500 mg (tables 5, 6)): 0.62 µg/mL
Dissolved meloxicam in solution ([1]; pH 1.3, 37° C., 15 min (tables 4, 11, 13)): 0.7 µg/mL and 0.44 µg/mL
Dissolved meloxicam in solution ([1]; pH 1.3, 37° C., 15 min, free meloxicam 130 mg, composition 1300 mg (table 7)): 0.67 µg/mL
Dissolved meloxicam in solution ([1]; pH 1.3, 37° C., 15 min, free meloxicam 130 mg, composition 1500 mg (tables 5, 6)): 0.67 µg/mL
Dissolved meloxicam in solution ([1]; pH 1.3, 37° C., 30 min (tables 4, 11, 13)): 0.7 µg/mL and 0.56 µg/mL
Dissolved meloxicam in solution ([1]; pH 1.3, 37° C., 30 min, free meloxicam 130 mg, composition 1300 mg (table 7)): 0.74 µg/mL
Dissolved meloxicam in solution ([1]; pH 1.3, 37° C., 30 min, free meloxicam 130 mg, composition 1500 mg (tables 5, 6)): 0.74 µg/mL
Dissolved meloxicam in solution ([1]; pH 1.3, 37° C., 45 min (tables 4, 11, 13)): 0.7 µg/mL and 0.59 µg/mL
Dissolved meloxicam in solution ([1]; pH 1.3, 37° C., 45 min, free meloxicam 130 mg, composition 1300 mg (table 7)): 0.73 µg/mL
Dissolved meloxicam in solution ([1]; pH 1.3, 37° C., 45 min, free meloxicam 130 mg, composition 1500 mg (tables 5, 6)): 0.73 µg/mL
Dissolved meloxicam in solution ([1]; pH 1.3, 37° C., 60 min (tables 4, 11, 13)): 0.6 µg/mL and 0.65 µg/mL
Dissolved meloxicam in solution ([1]; pH 1.3, 37° C., 60 min, free meloxicam 130 mg, composition 1300 mg (table 7)): 0.67 µg/mL
Dissolved meloxicam in solution ([1]; pH 1.3, 37° C., 60 min, free meloxicam 130 mg, composition 1500 mg (tables 5, 6)): 0.67 µg/mL
Dissolved meloxicam in solution ([1]; pH 7.6, 37° C., 5 min (tables 4, 11)): 38 µg/mL
Dissolved meloxicam in solution ([1]; pH 7.6, 37° C., 5 min, free meloxicam 130 mg, composition 1300 mg (table 7)): 38 µg/mL
Dissolved meloxicam in solution ([1]; pH 7.6, 37° C., 5 min, free meloxicam 130 mg, composition 1500 mg (tables 5, 6)): 38 µg/mL
Dissolved meloxicam in solution ([1]; pH 7.6, 37° C., 10 min (tables 4, 11)): 188 µg/mL and 218 µg/mL
Dissolved meloxicam in solution ([1]; pH 7.6, 37° C., 10 min, free meloxicam 130 mg, composition 1300 mg (table 7)): 218 µg/mL
Dissolved meloxicam in solution ([1]; pH 7.6, 37° C., 10 min, free meloxicam 130 mg, composition 1500 mg (tables 5, 6)): 218 µg/mL
Dissolved meloxicam in solution ([1]; pH 7.6, 37° C., 15 min (tables 4, 11)): 320 µg/mL
Dissolved meloxicam in solution ([1]; pH 7.6, 37° C., 15 min, free meloxicam 130 mg, composition 1300 mg (table 7)): 320 µg/mL
Dissolved meloxicam in solution ([1]; pH 7.6, 37° C., 15 min, free meloxicam 130 mg, composition 1500 mg (tables 5, 6)): 320 µg/mL
Dissolved meloxicam in solution ([1]; pH 7.6, 37° C., 30 min (tables 4, 11)): 390 µg/mL
Dissolved meloxicam in solution ([1]; pH 7.6, 37° C., 30 min, free meloxicam 130 mg, composition 1300 mg (table 7)): 390 µg/mL
Dissolved meloxicam in solution ([1]; pH 7.6, 37° C., 30 min, free meloxicam 130 mg, composition 1500 mg (tables 5, 6)): 390 µg/mL
Dissolved meloxicam in solution ([1]; pH 7.6, 37° C., 45 min (tables 4, 11)): 485 µg/mL
Dissolved meloxicam in solution ([1]; pH 7.6, 37° C., 45 min, free meloxicam 130 mg, composition 1300 mg (table 7)): 485 µg/mL
Dissolved meloxicam in solution ([1]; pH 7.6, 37° C., 45 min, free meloxicam 130 mg, composition 1500 mg (tables 5, 6)): 485 µg/mL
Dissolved meloxicam in solution ([1]; pH 7.6, 37° C., 60 min (tables 4, 11)): 550 µg/mL
Dissolved meloxicam in solution ([1]; pH 7.6, 37° C., 60 min, free meloxicam 130 mg, composition 1300 mg (table 7)): 550 µg/mL
Dissolved meloxicam in solution ([1]; pH 7.6, 37° C., 60 min, free meloxicam 130 mg, composition 1500 mg (tables 5, 6)): 550 µg/mL
meloxicam (dissolved) [2]: 0.8 µg/mL

— US6284269A, “Pharmaceutical compositions of meloxicam with improved solubility and bioavailability” (Hexal AG, priority 1997, dated 2001)
